# Results reported in patent US20260176300A1, “N-ARYLPYRAZOLE NOD2 AGONISTS AS PROMOTERS OF IMMUNE CHECKPOINT INHIBITOR THERAPY” (THE SCRIPPS RESEARCH INSTITUTE, priority 2022, published 2026).
# Experiments:
# [1] = biological target: T1, NOD2 (Homo sapiens, UniProt Q9HC29); test: NOD2-HEK-Blue NF-κB reporter cell activation assay (NOD2-expressing HEK-293T cells); type: cell-based; conditions: for EC50: calculated, three-parameter dose-response nonlinear regression, read-out: pEC50 (μM), dose-dependent activation of NOD2-expressing HEK-293T cells (converted)
# T1 construct: host or cells: HEK-293T-derived HEK-Blue NF-kB/SEAP reporter cells
# Method in brief: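 HEK-Blue NOD2 reporter cells in HEK-Blue detection medium were exposed to compounds for 8-10 h at 37° C. (or 16 h in complete DMEM, then QUANTI-Blue for 2-4 h). Secreted alkaline phosphatase read by absorbance at 630 nm; pEC50 from three-parameter dose-response nonlinear regression.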
# [2] = test system: intratumoral immune cells; test: Single cell transcriptomic profiling of intratumoral immune cells; type: in vivo, mice; conditions: tumors treated with anti-PD-L1 and compound
# Excerpt: N-arylpyrazole NOD2 agonist enhances intratumoral immune responses in vivo. The anti-tumor mechanism of action of the N-arylpyrazole NOD2 agonist in vivo was then further characterized. Infiltrating leukocytes from tumors treated with anti-PD-L1 and either TT030 or TT030-ent were harvested via cell sorting and subjected to single cell transcriptomic profiling (FIG. 4A and FIG. 8). After assignment of cell clusters using well-defined markers, the overall composition of intratumoral immune cells were examined by comparing the relative proportions of each cell cluster. […] In fact, overall expression of both Ifng and Gzmb were elevated in the TT030 sample compared to the enantiomer control (FIG. 9B), indicating heighted CD8^+ T cell activation and effector function. […] To better characterize changes to downstream signaling caused by TT030, differential gene expression and gene set enrichment analyses were performed.
# FIG. 4(A-E). NOD2 agonist TT030 remodels intratumoral immune cell composition and elicits broad inflammatory signaling. A, Uniform manifold approximation and projection (UMAP) reduction of single intratumoral immune cells harvested from α-PD-L1 and TT030- and TT030-ent-treated tumors. B-C, Heatmap and quantification of the relative composition of intratumoral immune cell types divided by clusters. D, Quantification of the number of clusters that were enriched for individual Molecular Signature Database (MSigDB) hallmark gene sets. E, Bubble plot for enrichment of curated REACTOME gene sets involving NF-κB or interleukin 1 across cell clusters. For relative composition, absolute cell counts were analyzed by Pearson's chi-square test for count data with Holm's correction for multiple comparisons; exact P values are given. […] NOD activation assays were analyzed using a one-way ANOVA with Dunnett's multiple comparisons test compared to the DMSO control.
# FIG. 9(A-B). […] QQ plots were analyzed using a two-sided Wilcoxon rank-sum test; exact P values are given.
# T1 sequence (Q9HC29 whole entry): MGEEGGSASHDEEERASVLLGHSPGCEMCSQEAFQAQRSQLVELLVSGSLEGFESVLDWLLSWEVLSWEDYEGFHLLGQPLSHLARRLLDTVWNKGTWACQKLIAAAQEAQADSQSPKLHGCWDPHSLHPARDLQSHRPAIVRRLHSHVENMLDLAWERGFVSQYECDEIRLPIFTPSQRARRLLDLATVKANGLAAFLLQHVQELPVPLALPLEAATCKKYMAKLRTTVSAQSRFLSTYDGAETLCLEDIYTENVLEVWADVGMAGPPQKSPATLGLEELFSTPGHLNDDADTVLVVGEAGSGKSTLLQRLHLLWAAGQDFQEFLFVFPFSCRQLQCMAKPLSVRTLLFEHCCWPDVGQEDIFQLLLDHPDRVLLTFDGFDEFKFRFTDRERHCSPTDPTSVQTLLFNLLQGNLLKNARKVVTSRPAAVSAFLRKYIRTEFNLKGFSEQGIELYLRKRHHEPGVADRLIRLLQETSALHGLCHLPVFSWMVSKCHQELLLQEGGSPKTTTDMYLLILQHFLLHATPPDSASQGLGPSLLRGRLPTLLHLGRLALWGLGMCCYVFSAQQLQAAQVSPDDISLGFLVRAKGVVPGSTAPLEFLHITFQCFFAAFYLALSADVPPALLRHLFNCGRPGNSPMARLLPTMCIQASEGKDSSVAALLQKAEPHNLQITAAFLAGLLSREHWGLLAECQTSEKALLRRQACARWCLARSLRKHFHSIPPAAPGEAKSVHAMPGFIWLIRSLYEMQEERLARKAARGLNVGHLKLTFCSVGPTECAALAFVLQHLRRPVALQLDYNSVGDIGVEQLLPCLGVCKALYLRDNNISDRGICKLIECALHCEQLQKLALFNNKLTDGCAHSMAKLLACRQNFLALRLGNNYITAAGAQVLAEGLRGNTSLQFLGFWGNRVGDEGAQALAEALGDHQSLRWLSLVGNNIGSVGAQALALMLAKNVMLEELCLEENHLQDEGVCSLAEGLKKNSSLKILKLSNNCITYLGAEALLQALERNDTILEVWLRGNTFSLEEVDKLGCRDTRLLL
SMILES,"lipophilic ligand efficiency (LLE) ([1]; calculated pEC50 vs. clogP, FIG. 2G)",EC50 [1] [µM],"Inflammatory, immune activation and metabolic pathways (IFNα, IFNγ response, NF-κB signaling), gene set enrichment [2]","Amount of T cell cluster expressing Cd8a, Ifng, Gzmb and Mki67 ([2]; vs. TT030-ent)",Overall expression of Ifng and Gzmb ([2]; vs. enantiomer control)
"CCOC(=O)CC[C@@H](NC(=O)[C@@H](NC(=O)c1c(C)nn(-c2cc[nH]c(=O)c2)c1C)C(C)C)C(=O)OCC [TT030, Diethyl (3,5-dimethyl-1-(2-oxo-1,2-dihydropyridin-4-yl)-1H-pyrazole-4-carbonyl)-L-valyl-D-glutamate]",6.81,0.251,upregulated,significant increase,elevated
"CC(=O)N[C@H]1C(O)O[C@H](CO)[C@@H](O)[C@@H]1O[C@H](C)C(=O)N[C@@H](C)C(=O)N[C@H](CCC(=O)O)C(N)=O (stereo partly drawn) [MDP, (4R)-4-((2S)-2-((2R)-2-(((3R,4R,5S,6R)-3-acetamido-2,5-dihydroxy-6-(hydroxymethyl)tetrahydro-2H-pyran-4-yl)oxy)propanamido)propanamido)-5-amino-5-oxopentanoic acid, reference compound]",–,0.126,–,–,–
